A short description of data set [1]: Chemical integrity of LFUS-irradiated drugs and lipids (HPLC, NMR, TLC). The format is physicochemical. The settings on record: 20 kHz, 3.3 W/cm^2, 30 to 180 s; HPLC (doxorubicin, MPS), NMR (cisplatin).
Method: Thin layer gel chromatography (TLC) was used to determine if any chemical changes were induced in the liposome lipids by exposure to ultrasonic irradiation.
MPS concentration and chemical integrity were determined using HPLC (Hewlett Packard Liquid Chromatograph 1090). ChemStation software (Hewlett Packard) controlled all modules and was used for analysis of the chromatography data. The analytical column used was a C18 5-micron Econosphere, length 150 mm, inner diameter 4.6 mm (Alltech, Carnforth, UK). Sample injection volume was 20 μL. Eluent was monitored at a wavelength of 245 nm with a 10 nm bandwidth.
Experiments were performed on an INOVA 500-MHz spectrometer (Varian, Palo Alto, Calif.) using standard pulse sequences. The Pt chemical shifts were assigned relative to the external reference signal of K2PtCl4, set at −1,624 ppm.
The conditions of data set [2]: cited from earlier work.

Where a name gives a salt, the structure may show the parent alone.

Regarding `N.N.[Cl][Pt][Cl]` [cisplatin, Cisplatin], the “chemical changes of drug after LFUS” value in data set [1] is “does not induce any chemical changes”.

One may read the pKa as the pH at which an ionisable group is half protonated. Regarding `C[C@H]1C[C@@H]2[C@H]([C@@H](O)C[C@@]3(C)[C@H]2CC[C@]3(O)C(=O)COC(=O)CCC(=O)O)[C@@]2(C)C=CC(=O)C=C12` [MPS, Methylprednisolone hemisuccinate sodium salt], the pKa in data set [2] is given as 4.65.

For `COc1cccc2c1C(=O)c1c(O)c3c(c(O)c1C2=O)C[C@@](O)(C(=O)CO)C[C@@H]3O[C@H]1C[C@H](N)[C@H](O)[C@H](C)O1` [doxorubicin, Doxorubicin-HCl], the “chemical changes of drug after LFUS” value in data set [1] is “does not induce any chemical changes”.

The record behind these values is US20090155345A1, “METHODS FOR AFFECTING LIPOSOME COMPOSITION ULTRASOUND IRRADIATION” (BEN GURION UNIVERSITY OF THE NEGEV RESEARCH AND DEVELOPMENT …, priority 2005, published 2009).
